Format in all cases: cell-based, mouse
In one assay the test system is p38α. Nature of the assay: Immunoprecipitation/kinase assay of p38α from neurospheres. As to conditions: differentiation media under caspase 3 inhibition. As for the experimental part:
(§1) Immunoprecipitation/Kinase activity assays: Immunoprecipitation/kinase analyses were performed as previously described (Fernando, P., et al., (2002) Proc Natl Acad Sci USA 99, 11025-11030). Cellular lysates from neurospheres were generated as described above. Antibodies against apoptotic signal-regulating kinase 1 (ASK1) (Upstate, USA), p21 activated kinase 1 (PAK1) (Cell Signaling Technologies, USA), and p38 MAPK (Santa Cruz, USA) were used to immunoprecipitate respective proteins. Samples were mixed with Protein G-sepharose beads for 1 h, washed and then mixed with kinase assay buffer containing myelin basic protein (MBP) and γ-32P[ATP]. Samples were reacted at 30° C. for 30 min and separated using SDS-PAGE. In some instances, samples were transferred to PVDF membrane following electrophoresis. To quantify kinase activities, MBP acrylamide bands were excised and solubilized in scintillation fluid prior to 32P-liquid scintillation analyses. In all cases, an activated recombinant mitogen activated protein kinase activated protein-2 (MAPKAP kinase-2) (Upstate, USA) was used as an internal control for liquid scintillation analyses.
ASK1 activity was reduced when cells were treated with differentiation media containing z-DEVD (DEVD condition) compared to differentiation media alone (DMSO condition) (FIG. 19c,d). Both PAK1 and ASK1 have been linked to the downstream activity of p38 MAPK. […]

A further assay concerns MST1. Briefly: MST1 immunoblot and immunoprecipitation/Histone H1 kinase assay from C2C12 lysates. As to conditions: for full-length MST1 protein level: C2C12, initial 24 h of low serum, Western blot. On the procedure:
(§2) Protein isolation, immunoblot analyses and immunocytochemistry. Cells from C2C12 and primary myoblast cultures were washed with ice-cold PBS and lysed on ice for 45 minutes in modified-RIPA buffer containing 20 mM NaF, 5 mM Na3VO4 and 10 μg/ml each of aprotinin, leupeptin, pepstatin and PMSF. Total protein was measured using the BCA protein assay (Pierce). Immunoblot analyses were performed as described (Creasy, C. L., & Chernoff, J. (1995) J. Biol. Chem. 270, 21695-21700) using antibodies for MST1, MKK6, p38γ, and p38α (Upstate), p38 and MEF2C (Cell Signaling Technologies), myogenin F5D and myosin heavy chain MF20 mAb (Developmental Hybridoma Bank), and active caspase-3 (Biovision).
Co-immunoprecipitation and kinase analyses. Immunoprecipitation was performed using 150-200 μg of total protein, incubated in modified-RIPA buffer at 4° C. for 16 h containing the respective antibody. Samples were mixed for 1 h with 25 μl of a 50% Protein G (Pharmacia). For co-immunoprecipitation, immunoprecipitates were washed in modified-RIPA buffer, boiled in 1× Lamelli buffer, separated by SDS-PAGE and Western blotted for immunoblot analyses. Immunoprecipitates used for kinase analyses were washed in modified-RIPA buffer and incubated in kinase buffer containing 20 mM MOPS (pH 7.2), 25 mM β-glycerophosphate, 5 mM EGTA, 1 mM Na3VO4 and 1 mM DTT supplemented with [γ-^32P]ATP and either recombinant MBP or recombinant Histone H1 (Upstate) as the target substrate. Samples were incubated for 30 min at 37° C. and then boiled in 1× Lamelli buffer. Following SDS-PAGE, gels were dried and phospho-incorporation was analyzed by autoradiography.
One kinase that was altered in activity co-migrated with a predicted pI (5.2) and molecular weight (36 kDa) consistent with Mammalian Sterile Twenty-like kinase (MST1). MST1 is a known caspase-3 activated kinase homologous to the yeast family of serine/threonine Ste20 kinases (Lechner, C., et al., (1996) Proc. Natl. Acad. Sci. USA 93, 43554359; Megeney, L. A., et al., (1996) Genes Dev 10, 1173-1183). […]

In the next assay the test system is PAK1. Briefly: Immunoprecipitation/kinase assay of PAK1 from neurospheres. As to conditions: differentiation media, vs DMSO. As for the experimental part: as §1
(§3) Caspase 3, when processed to its active form, is capable of targeting and activating many protein kinases that mediate cellular differentiation. […]

The test system of the next assay is ASK1. Briefly: Immunoprecipitation/kinase assay of ASK1 from neurospheres. The note with it: differentiation media, vs DMSO. As for the experimental part: as §1, §3
In a further assay the test system is PARP cleavage. Nature of the assay: PARP cleavage by Western blot in differentiating C2C12 myoblasts. As to conditions: C2C12, treated vs untreated. As for the experimental part:
as §2
Cells were fixed after 0, 2 and 4 days of differentiation and stained with the myosin heavy chain antibody MF20. […] In contrast, differentiation was more evident in cells that were incubated with caspase-8 inhibitor, z-LETD.fmk (FIG. 2B bottom panel, C).
A general note: A western blot detects proteins with antibodies after separation by electrophoresis.

`COC(=O)CC[C@H](NC(=O)[C@H](CC(=O)OC)NC(=O)OCc1ccccc1)C(=O)N[C@H](C(=O)N[C@@H](CC(=O)OC)C(=O)CF)C(C)C` [z-DEVD.fmk]: the p38α kinase activity entry in the assay on p38α was “very low levels of p38α kinase activity”. Further, the “full-length MST1 protein level” value is on record as “remained relatively unchanged” with MST1 and “does not change” in the assay on MST1 (listed as caspase-3 inhibitor). For the same molecule, in the assay on MST1 (MST1 immunoprecipitated from C2C12 lysates, 12 h low serum media), the “MST1 kinase activity (Histone H1 phosphorylation)” value is reported as “no phosphorylation above basal levels was detectable”. For the same molecule, in the assay on PAK1, the PAK1 activity result is reported as “reduced”. The ASK1 kinase activity result in the assay with ASK1 (listed as DEVD) is on record as “decrease”; in the assay with ASK1 (listed as z-DEVD), “reduced”. For the same molecule, the PARP cleavage products entry was “Comparable levels of PARP cleavage” in the assay on PARP cleavage (listed as Z-DEVD.fmk) and “accumulated to a similar degree” with PARP cleavage (listed as z-DEVD).

These data come from patent publication US20060013804A1, “Modulation of stem cell differentiation by modulation of caspase-3 activity” (Ottawa Health Research Institute, priority 2002, published 2006).
